How the values were obtained:
Format in all cases: in vivo, mouse (C57BL/6J male, 60% HFD DIO)
[1] = Example 2: lean mass by MRI on day 23
From the text: (§1) After 5-6-week-old C57BL/6J male mice were acclimatized for 1 week, the weight of each mouse was weighed, and the mice were randomly divided into a control group and a model group by taking the weight as a main index, where 12 mice in the control group were fed with common feed (CD), and the mice in the remaining model group were fed with 60% high-fat feed (60% HFD) for 10-12 weeks to construct a DIO obesity model, with the average body weight being not less than 40 g. The mice fed with 60% HFD were grabbed and acclimatized with a solvent for 3 days, where the acclimatization with a solvent was performed by oral gavage of 0.5% CMC-Na, once daily.
(§2) The food intake, the body weight, the body fat ratio, and the insulin level of the mice were respectively measured, followed by fasting blood glucose level, and the mice were randomly grouped according to Table 12 by taking the body weight as an index, and the remaining ungrouped mice were euthanized. After grouping, each group of mice was administered according to Table 12, the day of administration was defined as DO, and the administration volume of each drug was determined based on the results obtained by the calculation of 5 μL/g× mouse body weight (g).
(§3) For the combined administration group, the administration sequence and the administration time were kept consistent at each administration. The mice were continuously fed with high-fat feed during the administration period until the administration was finished. During administration, 1 food intake was measured per week (difference in feed weights at an interval of 24 h was measured); each group of mice was weighed once daily; blood was collected from the tail tip on day 16 and day 30, respectively, so as to measure fasting blood glucose levels once (blood was collected after fasting from 9:00 am to 3:[…]); on day 24 of administration (D23), the body fat ratio and the lean mass of each group of mice were measured by MRI (the measurement period was kept consistent with that before grouping); after 25 days of administration intervention (day 24), each group of mice was fasted for 6 h and subjected to OGTT (0 min, 15 min, 30 min, 60 min, 90 min, 120 min) to detect their blood glucose levels; after 29 days of administration intervention (day 28), each group of mice was fasted for 6 h and subjected to OGTT (0 min, 15 min, 30 min, 60 min, 90 min, 120 min), and meanwhile subjected to blood sampling via submaxillary vein (0 min, 15 min, 30 min, about 30 μL of blood sampled each time), and then the blood plasma was separated for detecting the insulin level by ELISA, where the separated blood plasma was more than 10 μL; the next day (D30) at the end of administration was set as the test endpoint, and the mice were fasted for 6 h in the morning and subjected to fasting blood glucose level measurement; subsequently, the mice were euthanized with CO2, blood was collected from the heart of each mouse for analysis, and each group of mice was dissected; the liver and subcutaneous, epididymal and mesenteric fat was collected, photographed and weighed, respectively.
The body weight, the lean mass and the lean ratio of each animal in groups G1 to G8 were measured on day 23 and averaged for each group, and the results are shown in Table 16 below, and FIGS. 23 and 24.

[2] = Example 2: body weight and body weight change rate, combined administration of HTD1801 and dapagliflozin or empagliflozin in DIO obesity model; conditions: for Body weight (mean) / Body weight change rate: HTD1801 250 mpk, dapagliflozin 10 mpk, empagliflozin 15 mpk p.o. QD, semaglutide 10 nmol/kg s.c. Q3D
From the text: as §1, §2, §3

[3] = Example 2: body fat mass by MRI on day 23
From the text: as §1, §2, §3
The body weight, the body fat mass and the body fat ratio of each animal in groups G1 to G8 were measured on day 23 and averaged for each group, and the results are shown in Table 15 below, and FIGS. 21 and 22.

[4] = mean, day 23, HTD1801 250 mpk, dapagliflozin 10 mpk, empagliflozin 15 mpk p.o. QD

## CCOc1ccc(Cc2cc([C@@H]3O[C@H](CO)[C@@H](O)[C@H](O)[C@H]3O)ccc2Cl)cc1 [Dapagliflozin, dapagliflozin]
[1]; day 23, relative to model control group G2
  lean ratio (in words): slightly decreased
[1]; mean, day 23 (Table 16), HTD1801 250 mpk, dapagliflozin 10 mpk, empagliflozin 15 mpk p.o. QD
  Body weight: 43.8 g
[1]; [4]
  Lean (lean mass): 4.3 g
  Lean ratio: 9.9%
[2]; dapagliflozin 10 mpk p.o. QD
  body weight decrease: 3.4%
[2]; day 0 (baseline)
  Body weight (mean): 45.4 g
  Body weight change rate: 0.0%
[2]; day 1
  Body weight (mean): 45.5 g
  Body weight change rate: 0.3%
[2]; day 2
  Body weight (mean): 45.3 g
  Body weight change rate: −0.1%
[2]; day 3
  Body weight (mean): 45.1 g
  Body weight change rate: −0.6%
[2]; day 4
  Body weight (mean): 44.8 g
  Body weight change rate: −1.2%
[2]; day 5
  Body weight (mean): 44.3 g
  Body weight change rate: −2.4%
[2]; day 6
  Body weight (mean): 44.1 g
  Body weight change rate: −2.7%
[2]; day 7
  Body weight (mean): 44.0 g
  Body weight change rate: −2.9%
[2]; day 8
  Body weight (mean): 43.7 g
  Body weight change rate: −3.7%
[2]; day 9
  Body weight (mean): 43.4 g
  Body weight change rate: −4.4%
[2]; day 10
  Body weight (mean): 43.5 g
  Body weight change rate: −4.2%
[2]; day 11
  Body weight (mean): 43.2 g
  Body weight change rate: −4.7%
[2]; day 12
  Body weight (mean): 43.1 g
  Body weight change rate: −4.9%
[2]; day 13
  Body weight (mean): 42.6 g
  Body weight change rate: −6.1%
[2]; day 14
  Body weight (mean): 42.7 g
  Body weight change rate: −6.0%
[2]; day 15
  Body weight (mean): 42.9 g
  Body weight change rate: −5.5%
[2]; day 16
  Body weight (mean): 42.8 g
  Body weight change rate: −5.7%
[2]; day 17
  Body weight (mean): 43.2 g
  Body weight change rate: −4.7%
[2]; day 18
  Body weight (mean): 43.3 g
  Body weight change rate: −4.5%
[2]; day 19
  Body weight (mean): 43.5 g
  Body weight change rate: −4.2%
[2]; day 20
  Body weight (mean): 43.5 g
  Body weight change rate: −4.1%
[2]; day 21
  Body weight (mean): 43.9 g
  Body weight change rate: −3.3%
[2]; day 22
  Body weight (mean): 43.9 g
  Body weight change rate: −3.3%
[2]; day 23
  Body weight (mean): 43.8 g
  Body weight change rate: −3.5%
[2]; day 24
  Body weight (mean): 43.5 g
  Body weight change rate: −4.2%
[2]; day 25
  Body weight (mean): 43.9 g
  Body weight change rate: −3.2%
[2]; day 26
  Body weight (mean): 44.2 g
  Body weight change rate: −2.5%
[2]; day 27
  Body weight (mean): 44.3 g
  Body weight change rate: −2.4%
[2]; day 28
  Body weight (mean): 43.9 g
  Body weight change rate: −3.2%
[2]; day 29
  Body weight (mean): 43.8 g
  Body weight change rate: −3.4%
[3]; day 23
  increase of body fat relative to control group G2: about 8.6%
[3]; day 23, relative to control group G2
  body fat mass and body fat ratio (in words): increased
[3]; mean, day 23 (Table 15), HTD1801 250 mpk, dapagliflozin 10 mpk, empagliflozin 15 mpk p.o. QD
  Body weight: 43.8 g
[3]; [4]
  Body fat ratio: 48.8%
  Fat (body fat mass): 21.4 g

From patent publication US20260373165A1, “PHARMACEUTICAL COMBINATIONS AND COMPOSITIONS, AND METHODS OF USE THEREOF” (SHENZHEN HIGHTIDE BIOPHARMACEUTICAL LTD., priority 2022, published 2026)
